Values after ≈ are worked out from the molar mass of the structure shown. Read-outs that look alike come from different tables or passages of the source.
Tested on: MRSA and MSSA
Assay: Antibacterial activity of gallic acid, various gallates and multivalent phenol derivatives alone (agar plate dilution method, MIC)
Type: cell-based, Staphylococcus aureus
Details: Staphylococcus aureus
Procedure: According to the agar plate dilution method defined by Japan Society of Chemotherapy, MIC (Minimum inhibitory concentration) was determined. CAMHA was prepared by adding 50 mg/l of Ca-ion, 25 mg/l of Mg-ion, and 2% of NaCl to Mueller-Hinton II Agar (MHA), and it was used as a medium for use in the measurement of sensitivity. The bacterial liquid was incubated at 37° C. overnight and diluted to 10^6 CFU/ml with saline.
MIC for gallic acid, various gallates and multivalent phenol derivatives alone with MRSA and MSSA were determined as described in experiment 2.

[1] = COL, compound alone, read-out: MIC
[2] = MRSA #1, compound alone, read-out: MIC
[3] = MRSA #2, compound alone, read-out: MIC
[4] = MRSA #3, compound alone, read-out: MIC
[5] = MRSA #4, compound alone, read-out: MIC
[6] = MRSA #5, compound alone, read-out: MIC
[7] = MRSA #6, compound alone, read-out: MIC
[8] = MRSA #7, compound alone, read-out: MIC
[9] = MRSA #8, compound alone, read-out: MIC
[10] = MRSA #9, compound alone, read-out: MIC
[11] = MRSA #10, compound alone, read-out: MIC
[12] = MRSA #12, compound alone, read-out: MIC
[13] = MRSA #16, compound alone, read-out: MIC
[14] = MRSA #17, compound alone, read-out: MIC
[15] = MRSA #18, compound alone, read-out: MIC
[16] = MRSA #20, compound alone, read-out: MIC
[17] = MRSA #21, compound alone, read-out: MIC
[18] = MRSA #22, compound alone, read-out: MIC
[19] = MRSA #24, compound alone, read-out: MIC
[20] = MSSA #1003, compound alone, read-out: MIC
[21] = MSSA #1010, compound alone, read-out: MIC
[22] = MSSA #1020, compound alone, read-out: MIC
[23] = MSSA #1023, compound alone, read-out: MIC
[24] = MSSA #1029, compound alone, read-out: MIC
[25] = MSSA #1032, compound alone, read-out: MIC

Compound: CC(=O)c1ccc(O)c(O)c1O [2′,3′,4′-trihydroxyacetophenone]
- MIC (ATCC 6538 / MRSA / MSSA, ATCC6538, compound alone, read-out: MIC): 62.5 mg/L (≈ 372 µM)
- MIC [1]: 62.5 mg/L (≈ 372 µM)
- MIC [2]: 62.5 mg/L (≈ 372 µM)
- MIC [3]: 62.5 mg/L (≈ 372 µM)
- MIC [4]: 62.5 mg/L (≈ 372 µM)
- MIC [5]: 62.5 mg/L (≈ 372 µM)
- MIC [6]: 62.5 mg/L (≈ 372 µM)
- MIC [7]: 31.3 mg/L (≈ 186 µM)
- MIC [8]: 62.5 mg/L (≈ 372 µM)
- MIC [9]: 62.5 mg/L (≈ 372 µM)
- MIC [10]: 62.5 mg/L (≈ 372 µM)
- MIC [11]: 31.3 mg/L (≈ 186 µM)
- MIC [12]: 62.5 mg/L (≈ 372 µM)
- MIC [13]: 62.5 mg/L (≈ 372 µM)
- MIC [14]: 62.5 mg/L (≈ 372 µM)
- MIC [15]: 62.5 mg/L (≈ 372 µM)
- MIC [16]: 62.5 mg/L (≈ 372 µM)
- MIC [17]: 62.5 mg/L (≈ 372 µM)
- MIC [18]: 62.5 mg/L (≈ 372 µM)
- MIC [19]: 62.5 mg/L (≈ 372 µM)
- MIC [20]: 62.5 mg/L (≈ 372 µM)
- MIC [21]: 62.5 mg/L (≈ 372 µM)
- MIC [22]: 62.5 mg/L (≈ 372 µM)
- MIC [23]: 31.3 mg/L (≈ 186 µM)
- MIC [24]: 31.3 mg/L (≈ 186 µM)
- MIC [25]: 62.5 mg/L (≈ 372 µM)
- MIC50 (over all strains of Table 3-2, compound alone, read-out: MIC50): 62.5 mg/L (≈ 372 µM)

Compound: CCCC(=O)c1cc(O)c(O)cc1O [2′,4′,5′-trihydroxybutyrophenone]
- MIC50: 125 mg/L (≈ 637 µM)
- MIC (ATCC 6538 / MRSA / MSSA): 125 mg/L (≈ 637 µM)
- MIC [1]: 125 mg/L (≈ 637 µM)
- MIC [2]: 62.5 mg/L (≈ 319 µM)
- MIC [3]: 125 mg/L (≈ 637 µM)
- MIC [4]: 62.5 mg/L (≈ 319 µM)
- MIC [5]: 125 mg/L (≈ 637 µM)
- MIC [6]: 62.5 mg/L (≈ 319 µM)
- MIC [7]: 62.5 mg/L (≈ 319 µM)
- MIC [8]: 62.5 mg/L (≈ 319 µM)
- MIC [9]: 125 mg/L (≈ 637 µM)
- MIC [10]: 62.5 mg/L (≈ 319 µM)
- MIC [11]: 62.5 mg/L (≈ 319 µM)
- MIC [12]: 125 mg/L (≈ 637 µM)
- MIC [13]: 62.5 mg/L (≈ 319 µM)
- MIC [14]: 125 mg/L (≈ 637 µM)
- MIC [15]: 125 mg/L (≈ 637 µM)
- MIC [16]: 125 mg/L (≈ 637 µM)
- MIC [17]: 125 mg/L (≈ 637 µM)
- MIC [18]: 125 mg/L (≈ 637 µM)
- MIC [19]: 125 mg/L (≈ 637 µM)
- MIC [20]: 125 mg/L (≈ 637 µM)
- MIC [21]: 125 mg/L (≈ 637 µM)
- MIC [22]: 125 mg/L (≈ 637 µM)
- MIC [23]: 62.5 mg/L (≈ 319 µM)
- MIC [24]: 62.5 mg/L (≈ 319 µM)
- MIC [25]: 62.5 mg/L (≈ 319 µM)

Compound: COC(=O)c1cc(O)c(O)c(O)c1 [Methyl gallate, methyl gallate]
- MIC (ATCC 6538 / MRSA / MSSA, ATCC6538, read-out: MIC alone): 250 mg/L (≈ 1360 µM)
- MIC (COL, read-out: MIC alone): 250 mg/L (≈ 1360 µM)
- MIC (MRSA #1, read-out: MIC alone): 250 mg/L (≈ 1360 µM)
- MIC (MRSA #2, read-out: MIC alone): 125 mg/L (≈ 679 µM)
- MIC (MRSA #3, read-out: MIC alone): 250 mg/L (≈ 1360 µM)
- MIC (MRSA #4, read-out: MIC alone): 125 mg/L (≈ 679 µM)
- MIC (MRSA #5, read-out: MIC alone): 250 mg/L (≈ 1360 µM)
- MIC (MRSA #6, read-out: MIC alone): 125 mg/L (≈ 679 µM)
- MIC (MRSA #7, read-out: MIC alone): 250 mg/L (≈ 1360 µM)
- MIC (MRSA #8, read-out: MIC alone): 250 mg/L (≈ 1360 µM)
- MIC (MRSA #9, read-out: MIC alone): 62.5 mg/L (≈ 339 µM)
- MIC (MRSA #10, read-out: MIC alone): 62.5 mg/L (≈ 339 µM)
- MIC (MRSA #12, read-out: MIC alone): 250 mg/L (≈ 1360 µM)
- MIC (MRSA #16, read-out: MIC alone): 125 mg/L (≈ 679 µM)
- MIC (MRSA #17, read-out: MIC alone): 125 mg/L (≈ 679 µM)
- MIC (MRSA #18, read-out: MIC alone): 125 mg/L (≈ 679 µM)
- MIC (MRSA #20, read-out: MIC alone): 250 mg/L (≈ 1360 µM)
- MIC (MRSA #21, read-out: MIC alone): 250 mg/L (≈ 1360 µM)
- MIC (MRSA #22, read-out: MIC alone): 250 mg/L (≈ 1360 µM)
- MIC (MRSA #24, read-out: MIC alone): 250 mg/L (≈ 1360 µM)
- MIC (MSSA #1003, read-out: MIC alone): 250 mg/L (≈ 1360 µM)
- MIC (MSSA #1010, read-out: MIC alone): 250 mg/L (≈ 1360 µM)
- MIC (MSSA #1020, read-out: MIC alone): 250 mg/L (≈ 1360 µM)
- MIC (MSSA #1023, read-out: MIC alone): 125 mg/L (≈ 679 µM)
- MIC (MSSA #1029, read-out: MIC alone): 62.5 mg/L (≈ 339 µM)
- MIC (MSSA #1032, read-out: MIC alone): 250 mg/L (≈ 1360 µM)
- MIC50 (compound alone, over all strains of Table 3-1, read-out: MIC50): 250 mg/L (≈ 1360 µM)
